From ChEMBL document CHEMBL1201862, “PubChem BioAssay data set” (2004)
Calls of active or inactive are those of the source.

Experiments:
Beta-lactamase [1] = molecular target: Beta-lactamase (Salmonella choleraesuis (strain SC-B67), UniProt Q5J463); assay: Epi-absorbance-based counterscreen for selective VIM-2 inhibitors: dose response biochemical high throughput screening assay to identify inhibitors of TEM-1 serine-beta-lactamase.
Beta-lactamase [2] = molecular target: T1, Beta-lactamase (Pseudomonas aeruginosa, UniProt Q79MP6); assay: […] counterscreen for selective VIM-2 inhibitors: dose response biochemical high throughput screening assay to identify inhibitors of IMP-1 metallo-beta-lactamase.
T1 sequence (Q79MP6 whole entry): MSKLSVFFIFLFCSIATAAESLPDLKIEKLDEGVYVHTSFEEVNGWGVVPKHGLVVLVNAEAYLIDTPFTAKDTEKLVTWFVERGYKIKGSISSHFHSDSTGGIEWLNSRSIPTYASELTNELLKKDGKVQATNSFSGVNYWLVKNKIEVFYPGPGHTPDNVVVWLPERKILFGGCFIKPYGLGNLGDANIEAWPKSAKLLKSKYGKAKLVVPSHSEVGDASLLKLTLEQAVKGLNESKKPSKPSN

Beta-lactamase [3] = molecular target: T1, Beta-lactamase; assay: inhibition of IMP-1 beta-lactamase activity – biochemical, epi-absorbance, selectivity assay for VIM-2 inhibitor project, dose response (AID 1920)
[4] = loss of viability in HepG2 cells – cell-based, CellTiter-Glo, cherry-picked, cytotoxicity control for Shn3 inhibitor project, dose response (AID 624134); format: functional
[5] = molecular target: Photoreceptor-specific nuclear receptor (Homo sapiens, UniProt Q9Y5X4); format: functional, cell-based;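 also: CHO-S cells with Gal4-NCOR and VP16-NR2E3 two-hybrid luciferase reporter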
Sequence of Photoreceptor-specific nuclear receptor (Q9Y5X4 whole entry, the tested form may be a part): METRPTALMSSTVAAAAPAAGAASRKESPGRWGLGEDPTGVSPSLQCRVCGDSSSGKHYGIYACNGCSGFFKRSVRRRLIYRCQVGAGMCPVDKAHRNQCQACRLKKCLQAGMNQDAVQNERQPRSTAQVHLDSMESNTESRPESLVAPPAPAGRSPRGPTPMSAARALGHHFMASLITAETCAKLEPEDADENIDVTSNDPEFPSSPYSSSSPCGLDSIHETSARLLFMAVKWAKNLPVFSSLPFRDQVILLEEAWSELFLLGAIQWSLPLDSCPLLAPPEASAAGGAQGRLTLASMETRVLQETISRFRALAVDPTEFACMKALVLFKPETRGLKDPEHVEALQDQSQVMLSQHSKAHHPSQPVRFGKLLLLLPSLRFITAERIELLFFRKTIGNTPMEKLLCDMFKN

[6] = reduction of Shn3 3'UTR-driven luciferase in osteoblasts – cell-based, Clone20 osteoblasts, firefly luciferase, cherry-picked, dose response (AID 624132); format: functional;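 also: firefly luciferase luminescence from reporter carrying the Shn3 3'UTR in osteoblasts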
[7] = non-specific 3'UTR reporter inhibition in Clone20-Shn3RL – cell-based, Renilla luciferase, cherry-picked, counter-screen for Shn3 inhibitor project, dose response (AID 624133); format: functional
[8] = microbe, parasite or virus in culture; format: functional; details: Mycobacterium tuberculosis
[9] = Trypanosoma cruzi growth suppression in host cells – NIH3T3 host cells, beta-gal luminescence, confirmation (AID 2044); format: functional, cell-based;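 also: intracellular parasites grown in NIH/3T3 mouse fibroblasts as host cells; luminescent beta-galactosidase reporter signal from transgenic T. cruzi replicating inside host cells; inhibitors lower the luminescence signal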
[10] = molecular target: T2, Ubiquitin-conjugating enzyme E2 N (Homo sapiens, UniProt P61088); format: functional;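 also: Dose-response confirmation in a TR-FRET assay detecting UBC13-driven polyubiquitin chain formation, inhibition measured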
T2 sequence (P61088 whole entry): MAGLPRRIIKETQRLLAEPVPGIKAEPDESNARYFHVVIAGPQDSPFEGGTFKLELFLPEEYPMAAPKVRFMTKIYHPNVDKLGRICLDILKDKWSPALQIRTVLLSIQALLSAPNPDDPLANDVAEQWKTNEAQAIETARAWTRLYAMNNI

[11] = NIH3T3 cell viability loss – ATP luminescence, mouse fibroblasts, counter-screen, dose response (AID 2010); format: functional, cell-based;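 also: cells exposed to compound for about 90 hours before reading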
[12] = viability loss in HeLa cells – cytotoxicity control for MgcRacGAP inhibitor project, dose response (AID 624300); format: functional
[13] = molecular target: T3, Rac GTPase-activating protein 1 (Homo sapiens, UniProt Q9H0H5); assay: blockers of MgcRacGAP-driven Rac1 GTP hydrolysis – biochemical, ADP Hunter fluorescence, primary and confirmatory, confirmation (AID 624330); format: functional
T3 sequence (Q9H0H5 whole entry): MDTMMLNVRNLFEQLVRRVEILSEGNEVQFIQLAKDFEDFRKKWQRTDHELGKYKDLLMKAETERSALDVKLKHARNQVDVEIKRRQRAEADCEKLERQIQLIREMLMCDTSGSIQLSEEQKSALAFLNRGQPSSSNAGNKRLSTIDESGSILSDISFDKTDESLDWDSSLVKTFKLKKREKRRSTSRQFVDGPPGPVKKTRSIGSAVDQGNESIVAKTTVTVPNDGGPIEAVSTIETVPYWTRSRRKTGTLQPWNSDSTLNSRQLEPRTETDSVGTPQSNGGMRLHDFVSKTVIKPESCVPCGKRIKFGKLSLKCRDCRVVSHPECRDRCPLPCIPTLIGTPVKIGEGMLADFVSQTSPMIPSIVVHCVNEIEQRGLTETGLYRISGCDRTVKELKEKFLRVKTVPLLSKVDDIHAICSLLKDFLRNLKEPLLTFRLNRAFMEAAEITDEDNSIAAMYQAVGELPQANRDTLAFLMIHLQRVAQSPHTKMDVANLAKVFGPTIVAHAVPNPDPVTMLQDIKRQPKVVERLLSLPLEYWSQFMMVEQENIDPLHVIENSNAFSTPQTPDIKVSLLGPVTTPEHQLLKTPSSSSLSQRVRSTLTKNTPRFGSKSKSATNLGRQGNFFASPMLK

Fatty acid synthase [14] = molecular target: T4, Fatty acid synthase (Homo sapiens, UniProt P49327); assay: inhibition of human FAS-TE enzyme activity – biochemical, endpoint fluorescence intensity, uHTS hits, dose response (AID 624327); format: functional;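 also: fluorescence from hydrolysis of an O-methyl fluorescein acyl ester substrate by the enzyme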
T4 sequence (P49327 whole entry): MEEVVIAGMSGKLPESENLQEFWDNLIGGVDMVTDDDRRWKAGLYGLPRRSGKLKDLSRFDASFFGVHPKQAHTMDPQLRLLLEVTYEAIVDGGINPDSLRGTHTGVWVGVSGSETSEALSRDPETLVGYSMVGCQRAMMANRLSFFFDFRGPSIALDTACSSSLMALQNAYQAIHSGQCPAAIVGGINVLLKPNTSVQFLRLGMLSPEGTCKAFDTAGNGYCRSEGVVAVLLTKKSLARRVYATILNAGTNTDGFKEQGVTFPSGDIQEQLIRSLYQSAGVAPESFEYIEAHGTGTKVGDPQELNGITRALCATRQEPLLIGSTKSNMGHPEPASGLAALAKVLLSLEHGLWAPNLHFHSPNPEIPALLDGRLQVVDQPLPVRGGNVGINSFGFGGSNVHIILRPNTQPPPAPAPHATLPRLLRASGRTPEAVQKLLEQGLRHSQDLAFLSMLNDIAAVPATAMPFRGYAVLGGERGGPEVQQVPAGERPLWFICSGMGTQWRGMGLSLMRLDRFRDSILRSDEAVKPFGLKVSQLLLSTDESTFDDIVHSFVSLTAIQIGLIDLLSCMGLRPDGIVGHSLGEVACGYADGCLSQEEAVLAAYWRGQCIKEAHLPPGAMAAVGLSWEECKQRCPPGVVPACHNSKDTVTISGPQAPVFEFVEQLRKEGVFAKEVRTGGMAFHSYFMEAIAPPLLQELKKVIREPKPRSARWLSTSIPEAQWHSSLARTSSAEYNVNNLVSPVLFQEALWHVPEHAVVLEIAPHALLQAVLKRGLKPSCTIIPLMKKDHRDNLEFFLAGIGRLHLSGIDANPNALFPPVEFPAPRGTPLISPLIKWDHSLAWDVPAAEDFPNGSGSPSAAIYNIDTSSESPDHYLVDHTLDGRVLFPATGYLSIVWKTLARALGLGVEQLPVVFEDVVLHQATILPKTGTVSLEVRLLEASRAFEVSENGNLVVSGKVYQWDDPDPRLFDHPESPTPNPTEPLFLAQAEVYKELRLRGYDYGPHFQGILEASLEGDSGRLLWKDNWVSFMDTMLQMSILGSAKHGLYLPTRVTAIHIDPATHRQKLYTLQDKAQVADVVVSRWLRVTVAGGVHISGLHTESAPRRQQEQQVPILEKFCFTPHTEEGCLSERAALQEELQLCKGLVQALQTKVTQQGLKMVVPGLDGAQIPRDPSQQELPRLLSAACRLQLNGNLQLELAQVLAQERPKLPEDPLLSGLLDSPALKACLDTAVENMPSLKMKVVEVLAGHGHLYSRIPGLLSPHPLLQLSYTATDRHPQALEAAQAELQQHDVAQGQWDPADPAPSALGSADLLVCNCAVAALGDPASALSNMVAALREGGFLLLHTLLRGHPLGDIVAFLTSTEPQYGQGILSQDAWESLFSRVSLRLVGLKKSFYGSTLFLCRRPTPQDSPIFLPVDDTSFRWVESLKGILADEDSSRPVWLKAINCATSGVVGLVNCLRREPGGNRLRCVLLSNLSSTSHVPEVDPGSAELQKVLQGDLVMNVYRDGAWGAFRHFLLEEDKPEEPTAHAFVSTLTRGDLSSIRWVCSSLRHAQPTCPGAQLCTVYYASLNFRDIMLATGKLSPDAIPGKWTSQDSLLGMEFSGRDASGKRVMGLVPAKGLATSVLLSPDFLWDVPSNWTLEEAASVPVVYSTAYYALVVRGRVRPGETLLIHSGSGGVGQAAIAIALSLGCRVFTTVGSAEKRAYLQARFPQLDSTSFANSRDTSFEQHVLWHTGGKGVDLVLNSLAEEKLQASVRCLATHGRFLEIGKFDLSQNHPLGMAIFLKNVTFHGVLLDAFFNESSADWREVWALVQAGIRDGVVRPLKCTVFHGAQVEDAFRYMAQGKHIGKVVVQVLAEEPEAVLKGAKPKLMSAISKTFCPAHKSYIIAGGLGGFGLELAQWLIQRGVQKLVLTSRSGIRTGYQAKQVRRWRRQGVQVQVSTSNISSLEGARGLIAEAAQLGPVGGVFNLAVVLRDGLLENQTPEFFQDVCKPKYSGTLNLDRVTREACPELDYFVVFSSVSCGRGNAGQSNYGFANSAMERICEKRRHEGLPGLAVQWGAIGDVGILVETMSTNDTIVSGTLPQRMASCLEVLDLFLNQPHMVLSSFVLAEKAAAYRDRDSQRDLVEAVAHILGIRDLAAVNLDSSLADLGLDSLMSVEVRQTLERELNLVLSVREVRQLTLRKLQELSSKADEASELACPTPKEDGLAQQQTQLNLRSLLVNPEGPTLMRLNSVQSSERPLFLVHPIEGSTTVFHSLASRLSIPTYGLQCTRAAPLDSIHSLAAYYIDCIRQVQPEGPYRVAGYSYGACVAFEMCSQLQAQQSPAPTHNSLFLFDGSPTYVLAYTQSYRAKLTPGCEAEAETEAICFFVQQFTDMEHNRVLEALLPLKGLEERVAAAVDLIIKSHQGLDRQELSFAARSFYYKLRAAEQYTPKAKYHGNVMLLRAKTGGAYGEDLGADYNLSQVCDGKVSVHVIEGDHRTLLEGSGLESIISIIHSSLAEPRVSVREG

Fatty acid synthase [15] = molecular target: T4, Fatty acid synthase; assay: inhibition of human FAS-TE enzyme activity – biochemical, kinetic fluorescence intensity, dose response (AID 624326); format: functional;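 also: rate of fluorescence rise from hydrolysis of a fluorogenic O-methyl fluorescein ester substrate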
Large T antigen = Large T antigen (Simian virus 40, UniProt P03070); format: functional, Betapolyomavirus macacae;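 also: Confirmatory-stage PubChem screen for compounds that inhibit SV40 T antigen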
Sequence of Large T antigen (P03070 whole entry): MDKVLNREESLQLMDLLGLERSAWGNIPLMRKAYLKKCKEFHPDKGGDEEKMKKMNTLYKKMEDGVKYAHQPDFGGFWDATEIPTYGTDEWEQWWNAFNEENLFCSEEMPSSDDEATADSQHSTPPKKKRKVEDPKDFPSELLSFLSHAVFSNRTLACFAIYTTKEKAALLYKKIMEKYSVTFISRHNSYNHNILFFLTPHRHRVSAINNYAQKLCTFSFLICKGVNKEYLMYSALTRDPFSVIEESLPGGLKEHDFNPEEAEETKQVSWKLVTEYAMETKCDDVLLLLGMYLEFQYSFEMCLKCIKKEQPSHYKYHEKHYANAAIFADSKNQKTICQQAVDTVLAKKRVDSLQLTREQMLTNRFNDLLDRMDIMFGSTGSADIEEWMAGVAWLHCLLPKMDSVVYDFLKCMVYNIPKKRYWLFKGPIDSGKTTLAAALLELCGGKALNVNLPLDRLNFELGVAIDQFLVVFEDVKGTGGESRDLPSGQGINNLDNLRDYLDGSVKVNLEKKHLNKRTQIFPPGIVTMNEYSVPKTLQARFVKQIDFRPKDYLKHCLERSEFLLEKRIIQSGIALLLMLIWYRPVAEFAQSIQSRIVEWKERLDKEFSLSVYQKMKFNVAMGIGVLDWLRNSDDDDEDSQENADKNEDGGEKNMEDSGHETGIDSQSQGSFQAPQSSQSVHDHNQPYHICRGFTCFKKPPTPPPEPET

[16] = molecular target: T5, Histone-lysine N-methyltransferase NSD2 (Homo sapiens, UniProt O96028); format: biochemical
T5 sequence (O96028 whole entry): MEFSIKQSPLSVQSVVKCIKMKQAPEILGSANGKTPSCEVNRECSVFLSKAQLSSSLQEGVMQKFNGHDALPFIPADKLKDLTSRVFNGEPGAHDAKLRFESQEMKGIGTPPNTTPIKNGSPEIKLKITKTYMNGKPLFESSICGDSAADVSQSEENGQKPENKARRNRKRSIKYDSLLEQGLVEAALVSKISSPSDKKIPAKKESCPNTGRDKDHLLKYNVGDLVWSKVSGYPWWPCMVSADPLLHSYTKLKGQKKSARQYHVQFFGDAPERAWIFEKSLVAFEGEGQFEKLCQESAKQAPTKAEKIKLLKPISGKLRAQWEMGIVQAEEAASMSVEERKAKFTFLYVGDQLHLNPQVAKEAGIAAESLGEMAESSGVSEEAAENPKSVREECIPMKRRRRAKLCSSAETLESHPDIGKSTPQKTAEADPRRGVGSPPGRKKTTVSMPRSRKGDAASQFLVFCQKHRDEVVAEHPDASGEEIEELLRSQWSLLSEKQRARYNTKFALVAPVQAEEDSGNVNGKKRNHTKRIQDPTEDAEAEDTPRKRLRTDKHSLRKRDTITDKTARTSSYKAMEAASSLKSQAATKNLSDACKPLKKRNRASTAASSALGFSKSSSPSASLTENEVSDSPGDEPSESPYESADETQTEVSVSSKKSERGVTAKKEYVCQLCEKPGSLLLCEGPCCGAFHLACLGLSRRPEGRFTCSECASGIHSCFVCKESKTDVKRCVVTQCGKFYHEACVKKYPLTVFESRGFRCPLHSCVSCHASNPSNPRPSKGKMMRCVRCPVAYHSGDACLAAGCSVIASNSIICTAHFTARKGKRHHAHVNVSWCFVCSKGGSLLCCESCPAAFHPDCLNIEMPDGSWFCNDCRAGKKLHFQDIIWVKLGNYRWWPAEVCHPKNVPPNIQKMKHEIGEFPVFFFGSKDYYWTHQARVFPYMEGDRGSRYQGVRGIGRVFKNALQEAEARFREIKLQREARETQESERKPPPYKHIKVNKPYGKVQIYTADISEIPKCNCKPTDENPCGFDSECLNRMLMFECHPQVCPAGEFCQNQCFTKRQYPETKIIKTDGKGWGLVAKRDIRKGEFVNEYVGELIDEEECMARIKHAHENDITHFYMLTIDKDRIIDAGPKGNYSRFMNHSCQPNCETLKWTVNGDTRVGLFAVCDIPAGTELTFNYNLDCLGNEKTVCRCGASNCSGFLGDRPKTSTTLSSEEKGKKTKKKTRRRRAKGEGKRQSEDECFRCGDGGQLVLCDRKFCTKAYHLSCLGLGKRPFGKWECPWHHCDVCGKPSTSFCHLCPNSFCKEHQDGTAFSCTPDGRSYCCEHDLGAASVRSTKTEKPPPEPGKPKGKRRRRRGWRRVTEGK

[17] = molecular target: DNA (cytosine-5)-methyltransferase 1 (Homo sapiens, UniProt P26358); assay: inhibition of DNA methylation by DNMT1 – biochemical, fluorescent molecular beacon, confirmation (AID 602386); format: functional
[18] = molecular target: Induced myeloid leukemia cell differentiation protein Mcl-1 (Homo sapiens, UniProt Q07820); format: functional
Sequence of Induced myeloid leukemia cell differentiation protein Mcl-1 (Q07820 whole entry): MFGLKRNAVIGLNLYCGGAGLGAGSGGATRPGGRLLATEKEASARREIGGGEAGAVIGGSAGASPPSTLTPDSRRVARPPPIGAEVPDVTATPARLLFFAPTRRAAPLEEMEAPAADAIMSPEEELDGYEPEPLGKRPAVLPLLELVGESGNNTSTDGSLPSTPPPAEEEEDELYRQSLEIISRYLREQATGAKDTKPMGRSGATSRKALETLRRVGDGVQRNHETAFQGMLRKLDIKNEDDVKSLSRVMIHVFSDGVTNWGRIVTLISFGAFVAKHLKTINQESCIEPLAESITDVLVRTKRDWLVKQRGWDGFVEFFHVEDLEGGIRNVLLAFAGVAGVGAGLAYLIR

[19] = molecular target: T6, Low molecular weight phosphotyrosine protein phosphatase (Homo sapiens, UniProt P24666); format: functional; details: read-out: IC50_Mean
T6 sequence (P24666 whole entry): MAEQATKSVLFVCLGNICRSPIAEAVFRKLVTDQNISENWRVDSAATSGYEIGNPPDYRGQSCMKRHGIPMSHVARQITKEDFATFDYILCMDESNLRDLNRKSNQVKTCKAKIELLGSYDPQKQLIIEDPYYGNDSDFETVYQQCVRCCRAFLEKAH

[20] = molecular target: T6, Low molecular weight phosphotyrosine protein phosphatase; format: functional; details: read-out: IC50_Mean; remark: listed apart in the source
[21] = molecular target: T7, Small ubiquitin-related modifier 1 (Homo sapiens, UniProt P63165); assay: SUMO1 protein interaction blockers, potency – biochemical, fluorescence polarization, uHTS hits, dose response (AID 624382); format: functional; details: read-out: IC50_Mean
T7 sequence (P63165 whole entry): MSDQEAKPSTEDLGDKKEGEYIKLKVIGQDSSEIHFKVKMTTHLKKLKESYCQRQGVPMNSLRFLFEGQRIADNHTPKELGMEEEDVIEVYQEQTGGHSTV

[22] = molecular target: T7, Small ubiquitin-related modifier 1; assay: SUMO1 protein-protein binding blockers, potency – biochemical, FRET, dose response (AID 624383); format: functional; details: read-out: IC50_Mean
Streptococcus = assay: GAS UMAA2166 growth inhibition – luminescence, BacTiterGlo, counter-screen for streptokinase expression inhibitor project, dose response (AID 1915); format: functional, organism-based;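 also: potency for reduction of bacterial viability or growth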
Streptokinase A = molecular target: T8, Streptokinase A (Streptococcus pyogenes serotype M1, UniProt P10520); assay: viability-normalized secreted streptokinase activity reduction – plasminogen activation absorbance, OD405, dose response (AID 1914); format: functional, Streptococcus pyogenes M1 GAS;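 also: secreted streptokinase activity via plasminogen activation per viability signal from cell pellet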
T8 sequence (P10520 whole entry): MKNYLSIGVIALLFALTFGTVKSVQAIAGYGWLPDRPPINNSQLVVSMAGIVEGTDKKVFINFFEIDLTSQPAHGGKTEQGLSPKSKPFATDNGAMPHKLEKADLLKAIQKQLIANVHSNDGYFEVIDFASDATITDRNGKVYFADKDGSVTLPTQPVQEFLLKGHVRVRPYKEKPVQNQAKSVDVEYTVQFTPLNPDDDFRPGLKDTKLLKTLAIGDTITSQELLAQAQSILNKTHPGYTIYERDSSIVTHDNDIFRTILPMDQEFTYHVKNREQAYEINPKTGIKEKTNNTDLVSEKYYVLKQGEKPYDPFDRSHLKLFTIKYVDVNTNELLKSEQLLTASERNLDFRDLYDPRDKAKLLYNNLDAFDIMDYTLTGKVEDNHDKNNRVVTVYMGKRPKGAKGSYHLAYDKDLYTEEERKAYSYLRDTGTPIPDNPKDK

[23] = test system: Streptococcus sp. 'group A'; assay: Streptococcus pyogenes SK(-)GAS viability under kanamycin – luminescence, BacTiterGlo, confirmation, counter-screen for streptokinase expression inhibitor project, dose response (AID 1900); format: functional, organism-based

Sequence of Beta-lactamase (Salmonella choleraesuis (strain SC-B67), UniProt Q5J463) (Q5J463 whole entry): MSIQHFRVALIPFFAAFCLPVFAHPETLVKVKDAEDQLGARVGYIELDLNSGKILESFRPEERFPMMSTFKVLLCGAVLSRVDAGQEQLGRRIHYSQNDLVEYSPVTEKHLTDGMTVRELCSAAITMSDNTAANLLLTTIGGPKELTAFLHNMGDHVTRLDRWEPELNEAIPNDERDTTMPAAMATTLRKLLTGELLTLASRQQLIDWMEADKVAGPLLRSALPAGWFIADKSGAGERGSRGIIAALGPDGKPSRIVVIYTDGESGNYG

For `Cc1c(C)c2ccc(OCC(=O)N3CCC[C@@H]3C(=O)O)c(C)c2oc1=O`, the IC50 (Beta-lactamase [1]) was > 59.6 µM (inactive), the IC50 (Beta-lactamase [2]) was > 59.6 µM (inactive) and the IC50 (Beta-lactamase [3]) was > 59.6 µM (inactive).
With `NS(=O)(=O)c1ccc(CCNc2nn3c(-c4cccc(OC(F)(F)F)c4)cnc3s2)cc1` the AC50 [4] was 52.5 µM (active), the IC50 [5] was 6.96 µM (active) and the AC50 [6] was 3.93 µM (active). For the same compound, the AC50 [7] was 0.852 µM (active).
For `CCOC(=O)c1c(C)n(-c2ccc(C)cc2)c2ccc(OCC(O)CNCC3CCCO3)cc12` (configuration not stated), the CC50 [8] was 13.2 µM (active), the EC50 [9] was 1.51 µM (active) and the IC50 [10] was > 20 µM (inactive). For the same compound, the EC50 [11] was > 60 µM (not active), the CC50 [12] was 39.7 µM (active) and the IC50 [13] was 131 µM (active).
With `Cc1cc(=O)n2nc(-c3ccc(C(C)(C)C)cc3)cc2[nH]1` the EC50 [9] was 0.646 µM (active), the IC50 (Fatty acid synthase [14]) was 9.51 µM (active) and the EC50 [11] was > 60 µM (not active). The IC50 (Fatty acid synthase [15]) was 15 µM (active).
In the case of `CCCCN1C(=O)/C(=C/C=C/c2ccco2)C(=O)NC1=S`, the IC50 (Large T antigen) is reported as 7.95 µM (active), the AC50 [16] is reported as 4.72 µM (active) and the IC50 [17] is reported as 3.39 µM (active). For the same compound, the IC50 [18] was 2.18 µM (active).
With `CC(=O)Nc1cc(O)c2cccnc2n1` the IC50 [19] was 25.9 µM (inactive) and the IC50 [20] was 38.7 µM (inactive).
In the case of `Nc1nc(N)c(Cc2ccc(Cl)cc2Cl)c(N)n1`, the IC50 [19] is reported as 7.44 µM (active) and the IC50 [20] is reported as 11.9 µM (active).
With `CC(C)OCCCNc1nc(-c2ccccc2)nc2ccccc12` the IC50 [19] was 11.7 µM (active) and the IC50 [20] was 22.9 µM (inactive).
For `O=[N+]([O-])c1ccc(S(=O)(=O)N/N=C/c2ccc3c(c2)OCO3)cc1`, the IC50 (Fatty acid synthase [14]) was 5.55 µM (active) and the IC50 (Fatty acid synthase [15]) was 5.36 µM (active).
In the case of `C#Cc1cccc(Nc2nc(NCc3ccccc3)nc3ccsc23)c1`, the IC50 [5] is reported as 7.02 µM (active).
With `CC(C)C[C@@H](CNCC(=O)[C@H](Cc1ccccc1)NC(=O)c1nc[nH]c1C(=O)N[C@H](CN)CC(C)C)NC(=O)c1[nH]cnc1C(=O)N[C@@H](CC(=O)O)C(=O)O` the IC50 [21] was > 66.6 µM (inactive) and the IC50 [22] was 20.4 µM (inactive).
For `CC(C)Oc1ccc(Cc2nnc(S)n2Cc2ccccc2)cc1Cl`, the IC50 (Fatty acid synthase [14]) was 6.4 µM (active) and the IC50 (Fatty acid synthase [15]) was 6.09 µM (active).
With `COc1ccc(-c2csc(NC(=S)NC(=O)c3cccs3)n2)cc1OC` the EC50 (Streptococcus) was 74.3 µM (active), the IC50 [21] was > 66.6 µM (inactive) and the EC50 (Streptokinase A) was > 150 µM (not active). The EC50 [23] was 23.4 µM (active) and the IC50 [22] was 7.27 µM (active).
With `Cc1n[nH]c(C)c1CCCCOc1ccc([N+](=O)[O-])cc1` the IC50 (Beta-lactamase [1]) was > 59.6 µM (inactive), the IC50 (Beta-lactamase [2]) was > 59.6 µM (inactive) and the IC50 (Beta-lactamase [3]) was > 59.6 µM (inactive).
